This assay concerns the target Tryptophan--tRNA ligase (Mycobacterium tuberculosis (strain ATCC 25618 / H37Rv), UniProt P9WFT3). Kind of assay: Biochemical assay for Mt-TrpRS. In kind it is functional.

Chain of Tryptophan--tRNA ligase (P9WFT3 whole entry): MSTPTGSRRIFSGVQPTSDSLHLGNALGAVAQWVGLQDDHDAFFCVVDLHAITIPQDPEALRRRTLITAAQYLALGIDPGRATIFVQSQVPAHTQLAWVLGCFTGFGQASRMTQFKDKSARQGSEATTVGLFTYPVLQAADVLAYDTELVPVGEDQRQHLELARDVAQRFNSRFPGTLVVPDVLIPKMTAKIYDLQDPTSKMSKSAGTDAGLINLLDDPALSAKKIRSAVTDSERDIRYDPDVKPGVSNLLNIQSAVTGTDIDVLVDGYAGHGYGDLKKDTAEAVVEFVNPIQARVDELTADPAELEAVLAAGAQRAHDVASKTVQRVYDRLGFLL

Compound `O=C1NC(=O)c2c3c(nc(O)c21)CCCC3` gave an IC50 above 195 µM. For `CCOC(=O)CNC(=O)C1OC(c2ccccc2)=NN1C(C)=O` (stereo unspecified) the value was above 195 µM; for `CCOCC(O)CNc1cncc(Br)c1` (stereo unspecified), above 195 µM; for `O=C(NCC1=CCCCC1)C(c1cccnc1)N1CCCC1` (stereo unspecified), above 195 µM. Compound `Cc1nc(CN2CCC3(C2)CN(Cc2ccco2)C3)cs1` showed an IC50 above 195 µM. For `N#CCCN1CC(O)CN(C(=O)c2cccc(C(F)(F)F)c2)CC1=O` (stereo unspecified) the value was above 195 µM. For `O=C1CC[C@H]2[C@H](CCN2c2ncccn2)N1c1ccccc1` the value was above 195 µM; for `CSc1ccccc1C(=O)NCc1cc2n(n1)CCCN(CC(C)C)C2`, above 195 µM. As for `CCc1nnc(CN2CCCCC2Cn2cncn2)o1` (stereo unspecified), the half-inhibitory concentration (IC50) is above 195 µM.

Compound `Cc1nc(CCC(=O)NCC(N)=O)cc(C2CCNCC2)n1` had an IC50 above 195 µM. Take `Cn1cc(C(=O)NCc2cncc3c2CCNC3)cn1`: the IC50 is above 195 µM.

Consider `O=C(NCc1ccccn1)c1cnc(C2CCCN2)cn1` (stereo unspecified), for which the IC50 is above 195 µM. In turn, `Cc1cc(N)cc(C2CN(Cc3cc[nH]n3)CCO2)n1` (stereo unspecified) gave an IC50 above 195 µM.

Compound `CCCC(O)CN1CC(C)(C)CN(C(=O)CCc2ccccc2)CC1=O` (stereo unspecified) had a half-inhibitory concentration (IC50) above 195 µM.

As to `CCN(CC)C1COc2ccc(Br)cc2C1=O` (stereo unspecified), the concentration for half-maximal inhibition (IC50) is above 195 µM. Under `COCc1cncc2c1CCN(C(=O)c1cscn1)C2` stands above 195 µM; under `COCC(=O)N1CCC(C(=O)c2cc(C)cnc2N)CC1`, above 195 µM. Consider `CC1CN(Cc2ccccc2)CCCN1CCS(C)(=O)=O` (stereo unspecified), for which the IC50 is above 195 µM. In the case of `COc1ccccc1C(=O)N1CC(=O)N(CC2CC2)CC(O)C1` (stereo unspecified), the IC50 was above 195 µM. In the case of `CCn1cc(N)c(-c2nnc3n2CCC3)n1`, the IC50 is above 195 µM. As to `CC(=O)N1CCCC(c2ccc(C(N)=O)cn2)C1` (stereo unspecified), the IC50 is above 195 µM. Under `CC(C(=O)NCc1ccc(N2CCCC2)nc1)S(C)(=O)=O` (stereo unspecified) stands above 195 µM. Under `CC(Cn1cccn1)NC(=O)NCCc1ccsc1` (stereo unspecified) stands above 195 µM; under `Cn1nccc1C(=O)N1CCCC1c1[nH]ncc1C(N)=O` (stereo unspecified), above 195 µM; under `COc1cccc(-c2ccnc(C3CCNCC3)c2)c1`, above 195 µM. For `CNC(=O)C1(CCCc2ccncc2)CCCCN1` (stereo unspecified) the value was above 195 µM. Take `COCC1CC2(CCN(Cc3nccs3)CC2)CN1Cc1ccccn1` (stereo unspecified): the concentration for half-maximal inhibition (IC50) is above 195 µM. For `CSc1ncc(C(=O)NCc2cc3n(n2)CCCN(CC(C)C)C3)cn1` the value was above 195 µM; for `COCC(=O)N1CC(=O)c2sc(Nc3ccc(F)cc3F)nc2C1`, above 195 µM.

`O=C(CC1CC1)N1CCC2(CC1)C(=O)NCCN2Cc1ccccc1`: the IC50 is above 195 µM. As for `Cc1cnc(N2CCOC(C(=O)NCc3ccccc3)C2)s1` (stereo unspecified), the IC50 is above 195 µM. For `c1cnnc(N2CCCC(NCc3nc(-c4ccco4)no3)C2)c1` (stereo unspecified) the value was above 195 µM. Compound `CC(=O)N1CCCC(c2ccnc(N(C)C)n2)C1` (stereo unspecified) showed a 50% inhibitory concentration (IC50) above 195 µM. Under `COc1ccccc1CN1CC(O)CN(S(=O)(=O)C(C)C)CC1=O` (stereo unspecified) stands above 195 µM; under `Cc1cccc(Cn2cc(C)c(N)n2)c1`, above 195 µM. Compound `CC(=O)NC1CCCN(C(=O)CCc2cccnc2)C1` (stereo unspecified) showed an IC50 above 195 µM. Under `CCn1cc(S(=O)(=O)NC(=O)CCc2c[nH]c3ccccc23)cn1` stands above 195 µM. Compound `Cn1cc(CCN2CCOC(CNc3cccnn3)C2)cn1` (stereo unspecified) showed a half-maximal inhibitory concentration (IC50) above 195 µM. For `O=C(c1ccc(F)cc1)N1C[C@@H]2COC[C@]2(COc2cccnc2)C1` the value was above 195 µM. For `O=C(NCCCn1ccnc1)c1cccnc1OCC(F)(F)F` the value was above 195 µM; for `Cc1ccc(Cn2cc(C)c(N)n2)cc1`, above 195 µM; for `OC1CCN(Cc2c(-c3ccco3)[nH]c3ncccc23)CC1`, above 195 µM. For `CNc1cccc(C2CCCN(C(=O)c3ccn(C)n3)C2)n1` (stereo unspecified) the value was above 195 µM; for `Cc1nc(C)c(C(=O)NCCNC(=O)Cc2ccc(F)cc2)s1`, above 195 µM; for `CNC(=O)c1nc(CN2CCOC(C(F)(F)F)C2)no1` (stereo unspecified), above 195 µM.

As for `N#Cc1cnc(N2CCC3(CC2)OCCO3)nc1N`, the IC50 is above 195 µM. `C[C@]1(O)CN(Cc2ncc[nH]2)CC[C@@H]1Oc1cccc(F)c1` gave an IC50 above 195 µM. Compound `CCOCc1cnc2n1CCN(C(=O)c1ccccc1)C2C` (stereo unspecified) had a half-inhibitory concentration (IC50) above 195 µM. Take `COCCN1CCC(c2cncc(N(C)C)n2)CC1`: the IC50 was above 195 µM. `CCc1ccc(CN2C[C@H](OC)[C@H]3COC[C@H]32)o1` gave a 50% inhibitory concentration (IC50) above 195 µM. `C[C@]1(O)CN(CCC(N)=O)CC[C@@H]1Oc1cccc(F)c1` gave an IC50 above 195 µM. For `COc1ccccc1NC(=O)NCCCC(=O)Nc1cn[nH]c1` the value was above 195 µM. With `CN(Cc1nnc2n1CCC2)C(=O)c1ccc2c(c1)OCCO2`, the 50% inhibitory concentration (IC50) is above 195 µM. Under `CC1CCCCN1c1nc2c(c(=O)[nH]1)CCN(Cc1ccccc1O)C2` (stereo unspecified) stands above 195 µM; under `Cc1sc2c(C3CCCN(C)C3)nc(C)n2c1C` (stereo unspecified), above 195 µM. Under `NC(=O)C1(CCCc2ccccn2)CCCN(CCO)C1` (stereo unspecified) stands above 195 µM; under `O=C(NCc1ccccn1)c1cncc(C2CCCN2)n1` (stereo unspecified), above 195 µM; under `OCc1nnc2n1CCN(c1cnccn1)C2`, above 195 µM. In turn, `COCC(=O)N1CCOC(c2ccc(N(C)C)cn2)C1` (stereo unspecified) had an IC50 above 195 µM.

Regarding `Cc1ncsc1C(=O)N(Cc1ccccn1)C1CC1`, the IC50 was above 195 µM. `COc1ccc2c(c1)CN(Cc1ccco1)C(=O)CCN2`: the half-maximal inhibitory concentration (IC50) is above 195 µM. In turn, `CC(=O)N1CCCC1c1cccc(Cc2ccccc2Cl)n1` (stereo unspecified) gave a concentration for half-maximal inhibition (IC50) above 195 µM. Under `O=C(O)c1ccccc1CN1CCOC(CCc2ccncn2)C1` (stereo unspecified) stands above 195 µM. `CC(O)CN1CCC(=O)N(Cc2ccccc2)Cc2ccccc21` (stereo unspecified) had an IC50 above 195 µM. For `CCN(CC1CCOC1)C(=O)c1cc(F)ccc1N1CCN(C)CC1` (stereo unspecified), the IC50 is above 195 µM.

As for `Cc1nc(C2(O)CCCNCC2)sc1CCOc1ccc(F)cc1` (stereo unspecified), the IC50 was above 195 µM. Compound `O=C(Cc1cccs1)N1Cc2nc(CN3CCCC3)oc2C1` showed a half-inhibitory concentration (IC50) above 195 µM. `CCO[C@H]1CN(CC2CCOCC2)[C@@H]2CCCO[C@H]12` had an IC50 above 195 µM.

For the compound `Cc1noc([C@@H]2C[C@H]3CN(CC4CCOCC4)C[C@H]3O2)n1`, the half-inhibitory concentration (IC50) was above 195 µM. Under `O[C@@]1(c2ccccn2)CC[C@H]2CN(Cc3ccccn3)C[C@H]21` stands above 195 µM. Compound `c1cnc(N2CCC(c3n[nH]c4ncccc34)C2)nc1` (stereo unspecified) showed an IC50 above 195 µM. Take `Cc1ccc(CN2C[C@H](NC(=O)c3nccn3C)[C@H]3OCCC[C@H]32)o1`: the half-inhibitory concentration (IC50) is above 195 µM. For `CCOCc1cnc2n1CCN(C(=O)c1ccoc1C)C2C` (stereo unspecified) the value was above 195 µM. For `O=C(N[C@@H]1CC[C@@H](n2ccnc2)[C@@H]1O)c1cc2c(s1)CCC2` the value was above 195 µM.

The compound `O=C(C1CCCCC1)N1CCC(c2n[nH]c3nccnc23)CC1` showed a 50% inhibitory concentration (IC50) above 195 µM. Under `Cn1cc(-c2cc(C(F)(F)F)n(CCCN)n2)cn1` stands above 195 µM; under `O=C(Cc1cccs1)N1CCC(O)(CN2CCc3ccccc3C2)C1` (stereo unspecified), above 195 µM.

For `CNCC(=O)N1CCCCC1c1nccc(C)n1` (stereo unspecified), the 50% inhibitory concentration (IC50) was above 195 µM. For `O=C(NCCc1ccccc1)C1CCN(C(=O)Cn2cncn2)C1` (stereo unspecified) the value was above 195 µM; for `COc1c(CNC2CCCN(c3ncccn3)C2)c(C(C)C)nn1C` (stereo unspecified), above 195 µM; for `Cc1c[nH]nc1C1CCN(C(=O)C2CCCC2)C1` (stereo unspecified), above 195 µM. For `COc1ccc(CN2CC[C@H](NC(C)=O)[C@@H](O)CC2)c(F)c1` the value was above 195 µM; for `CC(C)C(=O)N1CCC(C)(c2cc(O)[nH]n2)CC1`, above 195 µM.

In turn, `COc1ccc2c(c1)CC(NCCCn1cc(C)cn1)CC2` (stereo unspecified) showed a 50% inhibitory concentration (IC50) above 195 µM.

Regarding `CNCc1cc(F)ccc1Oc1ccc(F)cc1`, the half-inhibitory concentration (IC50) is above 195 µM.

Turning to `Cc1ccc(CN2CCO[C@H]3[C@H](OCc4cccnc4)CC[C@@H]32)o1`, the half-inhibitory concentration (IC50) is above 195 µM.

Take `COCCC(=O)NCCn1nc(C2CCNC2)c2cccnc21` (stereo unspecified): the IC50 is above 195 µM. Under `CNc1nc2c(s1)C(=O)CN(C(=O)NCCc1ccccc1)C2` stands above 195 µM; under `CC(C)n1c2ccccc2c2c1cc(C(=O)N(C)C)n2S(C)(=O)=O`, above 195 µM. For `OC(CNc1ccc(Cl)cn1)CN1CCOCC1` (stereo unspecified) the value was above 195 µM; for `O=C1CO[C@@H]2CN(S(=O)(=O)c3ccc(F)cc3)C[C@H]2N1`, above 195 µM; for `Cc1nc(Nc2nncs2)cc(C2CCCN2C)n1` (stereo unspecified), above 195 µM.

In turn, `CC(C)(C)C(=O)CN1Cc2ccccc2NCCC1=O` had an IC50 above 195 µM. For `CC(=O)N1CCO[C@@H]2CN(Cc3cccc(Cl)c3)C[C@@H]2C1` the value was above 195 µM. Under `Cc1nc(Nc2ncccn2)cc(C2CCCN2C)n1` (stereo unspecified) stands above 195 µM. As for `O=C(Cn1cccnc1=O)NC(Cc1ccsc1)c1nccs1` (stereo unspecified), the IC50 is above 195 µM. For `Cc1cn(Cc2ccc(F)c(F)c2)nc1N`, the IC50 was above 195 µM. Under `CS(=O)(=O)N1CCC2(CC1)CC(NCc1ccco1)c1ccccc12` (stereo unspecified) stands above 195 µM; under `N#Cc1cn[nH]c1NCc1cc(Br)ccc1O`, 31.4 µM; under `NC(=O)CN1CCOCC(Cc2ccccc2Cl)C1` (stereo unspecified), above 195 µM.

Compound `COCCc1noc(CN(C)C2CCCN(c3cccnn3)C2)n1` (stereo unspecified) had a half-inhibitory concentration (IC50) above 195 µM.

Compound `Cc1cnn(-c2ccc(S(N)(=O)=O)cc2F)c1` showed an IC50 above 195 µM. Compound `c1cn(-c2cnc(C3CCNCC3)cn2)cn1` had an IC50 above 195 µM.

As to `CC(=O)N1CCC(C(=O)N2CCC2c2nc(-c3ccc(C)s3)no2)CC1` (stereo unspecified), the IC50 was above 195 µM.

On to `CCN1CCC2(CC1)CC(CC(=O)N(C)C)c1ccc(F)cc12` (stereo unspecified), for which the IC50 is above 195 µM. For `CN(CCC(=O)N1CCCC(Cc2cccnc2)C1)Cc1cccnc1` (stereo unspecified) the value was above 195 µM; for `CCCC(=O)N1CCCCC1c1nccc(C)n1` (stereo unspecified), above 195 µM.

In the case of `Cc1cc(C)c(CNC(=O)NCc2nnc3n2CCC3)c(=O)[nH]1`, the IC50 is above 195 µM.

The compound `CNC(=O)COC1COC2(CCN(Cc3cccnc3)CC2)C1` (stereo unspecified) gave an IC50 above 195 µM.

`CCOC1CC2(CCN(Cc3nccn3C)CC2)C1`: the half-maximal inhibitory concentration (IC50) is above 195 µM. Under `COc1ccc(C(=O)Nc2cccc(SC)c2)c(OC)n1` stands above 195 µM.

Values taken from ChEMBL document CHEMBL3988442, “University of Dundee, Small-Polar-MMV Screening Library” (2021).
